# Assay results as given in ChEMBL document CHEMBL5729205, “Rho-associated protein kinase inhibitor, pharmaceutical composition comprising same, and preparation method and use thereof” (2022).
# pIC50: −log10 of the molar value.
# Molecular target: Rho-associated protein kinase 2 (Homo sapiens, UniProt O75116)
# Experiment: Biological Assay: The kinase IC50 was determined by a commercialized CISBIO kinase detection kit, HTRF KinEASE-STK S2 kit (62ST2PEC). ROCK2 (01-119) employed in the reaction was purchased from Carna Biosciences.Before the assay, the following working solutions as needed were formulated with corresponding reagents according to the instruction of the kinase detection kit: 1×kinase buffer, 5×STK-52 substrate working solution (1.5 μM) and 5×ATP working solution (1.5 μM), 5×ROCK2 kinase working solution, 4×Streptavidin-XL665 working solution, and 4×STK-Ab-Cryptate 2 detection solution. Then the assay was performed according to the following procedure.A solution of a compound at a concentration of 10000 nM was prepared with the 1×kinase buffer containing 2.5% DMSO. Gradient dilution of the solution of the compound was performed with the kinase buffer containing DMSO, so as to obtain solutions of a test compound at 9 different concentrations. In addition to wells of test compounds, a positive well (containing all the reagents except the compound) and a negative well (containing all the reagents except the test compound and kinase) were set. Except for the control wells (positive and negative wells), a solution of a test compound (4 μL) was added to each of the reaction wells, and a solution of 2.5% DMSO was added to the control wells. Then the substrate (2 μM, i.e., 2 μL. 5×STK-S2 substrate working solution) was added to each of the reaction wells. The 5×ROCK2 kinase working solution (2 μL, containing 1.4 ng ROCK2 kinase) was added to each of the reaction wells except for the negative well, the volume of which was made up with the 1×kinase buffer (2 μL). The 5×ATP working solution (2 μL) was added to each of the reaction wells, and the mixtures were incubated at room temperature for 2 hours. After the kinase reaction was complete, the 4×Streptavidin-XL665 working solution was added to each of the reaction wells, the solutions were mixed, followed by immediate addition of the 4×STK-Ab-Cryptate 2 detection solution (5 μL), and the mixtures were incubated at room temperature for 1 hour. The fluorescence signal was read on ENVISION (Perkinelmer) (excitation wavelength: 320 nm, and emission wavelength: 665 nm and 615 nm). The inhibitory rate in each well was calculated based on the fluorescence intensity value: ER (Emission Ratio)=(fluorescence intensity at 665 nm/fluorescence intensity at 615 nm); inhibitory rate=(ERpositive−ERtest compound)/(ERpositive−ERnegative)*100%. Curves were plotted and fitted to obtain the median inhibitory concentration (IC50) of each teat compound with the PRISM 5.0 software.
# Rho-associated protein kinase 2, sequence (O75116 whole entry): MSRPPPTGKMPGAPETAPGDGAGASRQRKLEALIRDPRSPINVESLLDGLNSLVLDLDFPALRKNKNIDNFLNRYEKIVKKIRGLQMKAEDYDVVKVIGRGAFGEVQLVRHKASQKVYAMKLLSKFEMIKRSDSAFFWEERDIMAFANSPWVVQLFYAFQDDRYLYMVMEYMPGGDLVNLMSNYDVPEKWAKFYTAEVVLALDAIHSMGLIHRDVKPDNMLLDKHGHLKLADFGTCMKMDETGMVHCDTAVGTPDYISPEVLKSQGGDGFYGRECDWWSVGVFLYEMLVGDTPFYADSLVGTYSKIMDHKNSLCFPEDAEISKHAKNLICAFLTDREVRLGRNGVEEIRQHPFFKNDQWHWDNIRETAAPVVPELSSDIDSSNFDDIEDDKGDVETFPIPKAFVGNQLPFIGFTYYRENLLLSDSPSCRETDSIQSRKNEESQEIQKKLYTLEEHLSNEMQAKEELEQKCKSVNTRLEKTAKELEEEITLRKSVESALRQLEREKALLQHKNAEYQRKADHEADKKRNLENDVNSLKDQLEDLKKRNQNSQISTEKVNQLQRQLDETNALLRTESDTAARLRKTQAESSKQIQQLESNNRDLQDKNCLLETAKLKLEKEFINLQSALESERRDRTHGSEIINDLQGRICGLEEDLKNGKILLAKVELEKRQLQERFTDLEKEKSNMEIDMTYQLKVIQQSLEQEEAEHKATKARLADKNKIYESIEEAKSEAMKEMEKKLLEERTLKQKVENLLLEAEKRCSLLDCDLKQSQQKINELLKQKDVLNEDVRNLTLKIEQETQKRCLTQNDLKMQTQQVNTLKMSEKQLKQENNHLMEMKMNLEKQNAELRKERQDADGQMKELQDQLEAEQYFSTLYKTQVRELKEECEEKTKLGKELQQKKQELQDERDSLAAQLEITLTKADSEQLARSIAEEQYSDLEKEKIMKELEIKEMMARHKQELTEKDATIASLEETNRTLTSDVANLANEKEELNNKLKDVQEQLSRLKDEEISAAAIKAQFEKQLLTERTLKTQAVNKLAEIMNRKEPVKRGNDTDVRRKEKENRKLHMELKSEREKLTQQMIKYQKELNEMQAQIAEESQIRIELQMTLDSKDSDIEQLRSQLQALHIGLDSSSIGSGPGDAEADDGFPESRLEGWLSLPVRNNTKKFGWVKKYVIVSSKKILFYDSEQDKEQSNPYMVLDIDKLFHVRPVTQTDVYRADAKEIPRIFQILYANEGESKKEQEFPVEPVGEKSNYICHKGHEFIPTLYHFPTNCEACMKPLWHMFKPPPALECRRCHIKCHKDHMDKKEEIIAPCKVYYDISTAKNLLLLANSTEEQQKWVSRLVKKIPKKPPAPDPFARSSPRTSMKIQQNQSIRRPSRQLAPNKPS
row,SMILES,pIC50
1,CC1(C(=O)N2CCc3ccc(-c4ncc(F)c(Nc5ccc(-c6cn[nH]c6)cc5)n4)cc3C2)CC(F)(F)C1,6.48
2,CC(C)NC(=O)c1cc2ccc(-c3nc(Cc4ccccc4)cc(Nc4ccc5[nH]ncc5c4)n3)cc2[nH]1,6.46
3,O=C(c1cccnc1)N1Cc2ccc(-c3nccc(Nc4ccc(-c5cn[nH]c5)cc4)n3)cc2C1,6.41
4,O=C(c1cc2ccc(-c3nccc(Nc4ccc5[nH]ncc5c4)n3)cc2[nH]1)N1CC2CNCC2C1 (centres undefined),6.39
5,O=C(N1CCc2ccc(-c3nccc(Nc4ccc(-c5cn[nH]c5)cc4)n3)cc2C1)N1CC(F)(F)C1,6.67
6,O=C(OC1CC(F)(F)C1)N1Cc2ccc(-c3ncc(F)c(Nc4ccc(-c5cn[nH]c5)cc4)n3)cc2C1,7.16
7,CCn1c(C(=O)N2CC(F)(F)C2)cc2ccc(-c3nccc(Nc4ccc(-c5cn[nH]c5)cc4)n3)cc21,6.93
8,O=C(c1cc2ccc(-c3nccc(Nc4ccc(-c5cn[nH]c5)cc4)n3)cc2[nH]1)N1CCCC1,6.62
9,COCCn1c(C(=O)N2CC(F)(F)C2)cc2ccc(-c3nccc(Nc4ccc(-c5cn[nH]c5)cc4)n3)cc21,6.45
10,N=C(N)N1CCC2(CC1)CCN(C(=O)c1cc3ccc(-c4nccc(Nc5ccc6[nH]ncc6c5)n4)cc3[nH]1)CC2,6.62
11,O=C(Oc1ccccc1)N1Cc2ccc(-c3nccc(Nc4ccc(-c5cn[nH]c5)cc4)n3)cc2C1,6.94
12,O=C(c1ccncc1)N1Cc2ccc(-c3nccc(Nc4ccc(-c5cn[nH]c5)cc4)n3)cc2C1,6.50
13,O=C(C1CCC(F)(F)CC1)N1CCc2ccc(-c3ncc(F)c(Nc4ccc(-c5cn[nH]c5)cc4)n3)cc2C1,6.32
14,COCn1c(C(=O)N2CC(F)(F)C2)cc2ccc(-c3ncnc(Nc4ccc(-c5cn[nH]c5)cc4)n3)cc21,6.37
15,Cn1c(C(=O)N2CC(F)(F)C2)cc2ccc(-c3nc(Nc4ccc(-c5cn[nH]c5)cc4)c4occc4n3)cc21,7.10
16,Cn1ccc2nc(-c3ccc4cc(C(=O)N5CC(F)(F)C5)n(C)c4c3)nc(Nc3ccc(-c4cn[nH]c4)cc3)c21,7.12
17,O=C(C1CC(F)(F)C1)N1Cc2ccc(-c3nc(Nc4ccc5[nH]ncc5c4)c4sccc4n3)cc2C1,6.89
18,O=C(C1CC(F)(F)C1)N1Cc2ccc(-c3nc(Nc4ccc(-c5cn[nH]c5)cc4)c4sccc4n3)cc2C1,7.22
19,O=C(C1CC(F)(F)C1)N1CCc2cc(-c3nccc(Nc4ccc(-c5cn[nH]c5)cc4)n3)ccc2C1,6.89
20,Cc1[nH]ncc1-c1ccc(Nc2nc(-c3ccc4c(c3)CN(C(=O)C3CC(F)(F)C3)C4)ncc2F)cc1,7.03
21,C#CC1CN(C(=O)c2cc3ccc(-c4nccc(Nc5ccc(-c6cn[nH]c6)cc5)n4)cc3n2C)C1,6.49
22,O=C(C1CCOCC1)N1Cc2ccc(-c3ncc(F)c(Nc4ccc(-c5cn[nH]c5)cc4)n3)cc2C1,6.79
23,CN1Cc2nc(-c3ccc4c(c3)CN(C(=O)C3CC(F)(F)C3)C4)nc(Nc3ccc(-c4cn[nH]c4)cc3)c2C1,7.40
24,C[C@@H](NC(=O)c1cc2ccc(-c3nccc(Nc4ccc5[nH]ncc5c4)n3)cc2[nH]1)c1ccc(C(F)(F)F)nc1,7.05
25,O=C(C1CC(F)(F)C1)N1CCc2ccc(-c3nccc(Nc4ccc(-c5cn[nH]c5)cc4)n3)cc2C1,6.67
26,COCn1c(C(=O)N2CC(F)(F)C2)cc2ccc(-c3ncc(F)c(Nc4ccc(-c5cn[nH]c5)cc4)n3)cc21,6.59
27,O=C(c1cc2ccc(-c3nccc(Nc4ccc(-c5cn[nH]c5)cc4)n3)cc2n1CC(F)F)N1CC(F)(F)C1,6.80

# Second part, the molecule after the results:
row,pIC50,SMILES
1,7.66,CC1(C(=O)N2Cc3ccc(-c4nccc(Nc5ccc(-c6cn[nH]c6)cc5)n4)cc3C2)CC(F)(F)C1
2,7.54,O=C(C1CC(F)(F)C1)N1Cc2ccc(-c3nc(Nc4ccc(-c5cn[nH]c5)cc4)c4[nH]ccc4n3)cc2C1
3,7.68,COc1cc(-c2cn[nH]c2)ccc1Nc1ccnc(-c2ccc3c(c2)CN(C(=O)C2CC(F)(F)C2)C3)n1
4,7.57,Cn1c(C(=O)N2CC(F)(F)C2)cc2ccc(-c3nccc(Nc4ccc(-c5cn[nH]c5)nc4)n3)cc21
5,7.72,O=C(OC1CC(F)(F)C1)N1Cc2ccc(-c3nccc(Nc4ccc5[nH]ncc5c4)n3)cc2C1
6,7.74,O=C(C1CC(F)(F)C1)N1Cc2ccc(-c3nc(Nc4ccc(-c5cn[nH]c5)cc4)c4occc4n3)cc2C1
7,8.00,Cn1c(C(=O)N2CC(F)(F)C2)cc2ccc(-c3nc4c(c(Nc5ccc(-c6cn[nH]c6)cc5)n3)COC4)cc21
8,7.72,Cc1cnc(-c2ccc3cc(C(=O)N4CC(F)(F)C4)n(C)c3c2)nc1Nc1ccc(-c2cn[nH]c2)cc1
9,7.57,COCn1c(C(=O)N2CC(F)(F)C2)cc2ccc(-c3nc4c(c(Nc5ccc(-c6cn[nH]c6)cc5)n3)CNC4)cc21
10,7.41,Cn1c(C(=O)N2CC(F)(F)C2)cc2ccc(-c3nccc(Nc4ccc(-c5cn[nH]c5)cn4)n3)cc21
11,8.40,Cn1c(C(=O)N2CC(F)(F)C2)cc2ccc(-c3nc4c(c(Nc5ccc(-c6cn[nH]c6)cc5)n3)CNC4)cc21
12,7.85,CN1Cc2nc(-c3ccc4cc(C(=O)N5CC(F)(F)C5)n(C)c4c3)nc(Nc3ccc(-c4cn[nH]c4)cc3)c2C1
13,7.64,COc1cnc(-c2ccc3cc(C(=O)N4CC(F)(F)C4)[nH]c3c2)nc1Nc1ccc(-c2cn[nH]c2)cc1
14,7.41,O=C(C1CC(F)(F)C1)N1Cc2ccc(-c3cncc(Nc4ccc(-c5cn[nH]c5)cc4)n3)cc2C1
15,7.85,O=C(NC1CCN(c2ccncc2Cl)CC1)c1cc2ccc(-c3nccc(Nc4ccc5[nH]ncc5c4)n3)cc2[nH]1
16,8.00,O=C(C1CC(F)(F)C1)N1Cc2ccc(-c3nc4c(c(Nc5ccc(-c6cn[nH]c6)cc5)n3)CNC4)cc2C1
17,7.47,Cn1c(C(=O)N2CC(F)(F)C2)cc2ccc(-c3nccc(Nc4ccc(-c5cn[nH]c5)cc4O)n3)cc21
